Read-outs that look alike come from different tables or passages of the source.
Experiments:
[1] = molecular target: Cys242 in human PIK3CA (157-299) (Homo sapiens (Human), UniProt P42336); assay: Covalent modification assay using MALDI-TOF MS; type: biochemical; conditions: 4 h reaction time point
Summary of the method: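 PIK3CA (157-299), 3.33 or 1 μM in 20 mM HEPES, 150 mM NaCl, 2 mM MgCl2, pH 7.3, was incubated with compound at room temperature in the dark for 15 min, 30 min, 2 h or 4 h. Linear MALDI-TOF read-out; % modification = adduct peak height over summed heights of all protein species.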

pAKT in BT474 cells = assay: Cell-based pAKT HTRF assay in BT474 cells; conditions: BT474 cells, 4 hr incubation, read-out: pAKT inhibition IC50 in BT474 cells
Summary of the method: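 Cells are seeded on day 1 and dosed on day 2 with a 9-point curve (3 μM top, 3-fold). After 4 hr they are lysed and the lysate is mixed with d2- and Eu Cryptate-labelled antibodies. HTRF is read after 4–24 h at room temperature.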

[2] = 1 μM protein target, 1:5 protein to compound ratio (compounds 853-1279)
[3] = 3.33 μM protein target, 1:7.5 protein to compound ratio (compounds 1-852)

Cys242 in human PIK3CA (157-299), sequence (P42336 157-299): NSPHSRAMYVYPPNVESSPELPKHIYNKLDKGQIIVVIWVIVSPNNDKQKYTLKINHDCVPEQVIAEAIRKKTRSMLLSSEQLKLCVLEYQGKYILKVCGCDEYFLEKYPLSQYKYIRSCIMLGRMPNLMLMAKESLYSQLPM

| IC50 (pAKT in BT474 cells; Compounds 10-999) | SMILES | % of modification [1, 2] | % of modification [1, 3] | further results |
| --- | --- | --- | --- | --- |
|  | C=CC(=O)N1CCc2ncc(-c3nc(-c4ccc5c(cnn5C)c4)c4sccc4c3-c3c(F)cc(F)cc3OCCOC)cc2C1 [Compound 1261, 1-[3-[4-[2,4-difluoro-6-(2-methoxyethoxy)phenyl]-7-(1-methylindazol-5-yl)thieno[2,3-c]pyridin-5-yl]-7,8-dihydro-5H-1,6-naphthyridin-6-yl]prop-2-en-1-one] | A (percent of modification of PIK3CA protein ≥75%) |  | IC50 (pAKT in BT474 cells; Homo sapiens, BT-474, Compounds 1000-1279): < 100 nM |
| < 100 nM | C=CC(=O)N1CCn2nc(-c3nc(-c4ccc5c(c4)ncn5C)c4ccsc4c3-c3c(F)cc(F)cc3OCCO)cc2[C@H]1C [Compound 651] |  | C (25%≤percent of modification <50%) |  |
| < 100 nM | C=CC(=O)N1CCn2nc(-c3nc(-c4ccc(=O)n(C(C)C)c4)c4ccsc4c3-c3c(F)cc(F)cc3OCCOC)cc2C1C (stereo not drawn) [Compound 987] | A (percent of modification of PIK3CA protein ≥75%) |  |  |
| 100 to 1000 nM | C=CC(=O)N1CC(n2cc(-c3nc(N4CCC5(CC4)COC5)c4ccsc4c3-c3ccc(F)cc3OCCOC)cn2)C1 [Compound 122] |  | A (percent of modification of PIK3CA protein ≥75%) |  |
|  | C=CC(=O)N1CCn2nc(-c3nc(-c4ccc(CC(=O)N5CC(F)(F)C5)cc4)c4ccsc4c3-c3c(F)cc(F)cc3OCCOC)cc2C1C (stereo not drawn) [Compound 1102] | A (percent of modification of PIK3CA protein ≥75%) |  | IC50 (pAKT in BT474 cells; Compounds 1000-1279): < 100 nM |
| < 100 nM | C=CC(=O)N1CCn2nc(-c3nc(-c4ccc5ncn(C)c(=O)c5c4)c4ccsc4c3-c3c(F)cc(F)cc3OCCOC)cc2C1C (stereo not drawn) [Compound 915] | A (percent of modification of PIK3CA protein ≥75%) |  |  |
|  | C=CC(=O)N1CCn2nc(-c3nc(-c4ccc(C(=O)NC5CN(C)C5)cc4)c4ccsc4c3-c3c(F)cc(F)cc3OCCOC)cc2C1C (stereo not drawn) [Compound 1095] | A (percent of modification of PIK3CA protein ≥75%) |  | IC50 (pAKT in BT474 cells; Compounds 1000-1279): < 100 nM |
|  | C=CC(=O)N1CCc2nc(-c3nc(-c4ccc5c(c4)CCNC5=O)c4ccsc4c3-c3ccc(F)cc3OCCOC)sc2C1 [Compound 118, 6-[7-[4-fluoro-2-(2-methoxyethoxy)phenyl]-6-(5-prop-2-enoyl-6,7-dihydro-4H-thiazolo[5,4-c]pyridin-2-yl)thieno[3,2-c]pyridin-4-yl]-3,4-dihydro-2H-isoquinolin-1-one] |  | A (percent of modification of PIK3CA protein ≥75%) | IC50 (pAKT in BT474 cells; Homo sapiens, BT-474, Compounds 10-999): < 100 nM |
| < 100 nM | C=CC(=O)N1CCc2ncc(-c3nc(-c4cnnc(C)c4)c4ccsc4c3-c3c(F)cc(F)cc3OCCOC)cc2C1 [Compound 383] |  | A (percent of modification of PIK3CA protein ≥75%) |  |
| < 100 nM | C=CC(=O)N1CCc2ncc(-c3nc(-c4ccn(C(F)F)c(=O)c4)c4ccsc4c3-c3c(F)cc(F)cc3OC(C)C)cc2C1 [Compound 359] |  | A (percent of modification of PIK3CA protein ≥75%) |  |
|  | C=CC(=O)N1CCn2nc(-c3nc(-c4ccc5c(c4)CNC(=O)C54CC4)c4ccsc4c3-c3c(F)cc(F)cc3OCCOC)cc2C1C (stereo not drawn) [Compound 1083] | A (percent of modification of PIK3CA protein ≥75%) |  | IC50 (pAKT in BT474 cells; Compounds 1000-1279): < 100 nM |
|  | C=CC(=O)N1CCn2nc(-c3nc(-c4cnc5c(c4)CN(CC(F)F)CC5)c4ccsc4c3-c3c(F)cc(F)cc3OCCOC)cc2C1C (stereo not drawn) [Compound 1081] | A (percent of modification of PIK3CA protein ≥75%) |  | IC50 (pAKT in BT474 cells; Compounds 1000-1279): < 100 nM |
| < 100 nM | C=CC(=O)N1CCc2ncc(-c3nc(-c4cnn(C)c4)c4ccsc4c3-c3c(F)cc(F)cc3OCCO)cc2C1 [Compound 395] |  | A (percent of modification of PIK3CA protein ≥75%) |  |
| < 100 nM | C=CC(=O)N1Cc2cc(-c3nc(-c4cn(C)cn4)c4ccsc4c3-c3c(F)cc(F)cc3OCCOC)nn2[C@@H](C)C1 [Compound 509] |  | A (percent of modification of PIK3CA protein ≥75%) |  |
| 1000 to 3000 nM | C=CC(=O)N1CC(n2cc(-c3nc(N4CC5CNCC5C4)c4ccsc4c3-c3ccc(F)cc3OCCOC)cn2)C1 (stereo not drawn) [Compound 134] |  | B (50%<percent of modification <75%) |  |
